Laboratory results published in ChEMBL document CHEMBL6103573, “Discovery of novel thienopyridine indole derivatives as inhibitors of tubulin polymerization targeting the colchicine-binding site with potent anticancer activities” (Eur J Med Chem, 2025).
Activity calls are given as the source filed them.

What was measured:
Assay type in all cases: functional, cell-based
MGC-803 [1] = assay: Anti-migratory activity against human MGC-803 cells assessed as reduction in wound healing area measured after 24 hrs by wound healing assay; conditions: dose 0.5-1 nmol/L
MGC-803 [2] = assay: Induction of apoptosis in human MGC-803 cells assessed as cell rupture at 0.25 to 2.0 nmol/L incubated for 48 hrs by bright field microscopic analysis; conditions: dose 0.25-2 nmol/L
HGC-27 = assay: Induction of apoptosis in human HGC-27 cells assessed as increase in dead to live cells ratio at 0.25 to 2.0 nmol/L incubated for 48 hrs by Calcein-AM/PI staining based analysis; conditions: dose 0.25-2 nmol/L

Measured: Activity

CN(c1ccc2c(ccn2C)c1)c1nc(N2CCCC2)nc2sccc12
active: MGC-803 [1] Dose-dependent-effect | MGC-803 [2] | HGC-27
